The target of one assay is Human PARP1 (Homo sapiens (Human), UniProt P09874). The assay is described as follows: PARP1 autoparsylation assay (LC/MS detection of nicotinamide). In kind it is biochemical. The following applies: 20 nM enzyme, 250 μM β-NAD+, 60 min. Here is the method: (§1) The autoparsylation activity of the TNKS 1/2 or PARP1/2 enzymes was measured by the liquid chromatography-mass spectrometry (LC/MS) detection of nicotinamide as readout. Compound activity in inhibiting the TNKS and PARP autoparsylation was evaluated by IC50 measurements.
Sequence of Human PARP1 (P09874 whole entry): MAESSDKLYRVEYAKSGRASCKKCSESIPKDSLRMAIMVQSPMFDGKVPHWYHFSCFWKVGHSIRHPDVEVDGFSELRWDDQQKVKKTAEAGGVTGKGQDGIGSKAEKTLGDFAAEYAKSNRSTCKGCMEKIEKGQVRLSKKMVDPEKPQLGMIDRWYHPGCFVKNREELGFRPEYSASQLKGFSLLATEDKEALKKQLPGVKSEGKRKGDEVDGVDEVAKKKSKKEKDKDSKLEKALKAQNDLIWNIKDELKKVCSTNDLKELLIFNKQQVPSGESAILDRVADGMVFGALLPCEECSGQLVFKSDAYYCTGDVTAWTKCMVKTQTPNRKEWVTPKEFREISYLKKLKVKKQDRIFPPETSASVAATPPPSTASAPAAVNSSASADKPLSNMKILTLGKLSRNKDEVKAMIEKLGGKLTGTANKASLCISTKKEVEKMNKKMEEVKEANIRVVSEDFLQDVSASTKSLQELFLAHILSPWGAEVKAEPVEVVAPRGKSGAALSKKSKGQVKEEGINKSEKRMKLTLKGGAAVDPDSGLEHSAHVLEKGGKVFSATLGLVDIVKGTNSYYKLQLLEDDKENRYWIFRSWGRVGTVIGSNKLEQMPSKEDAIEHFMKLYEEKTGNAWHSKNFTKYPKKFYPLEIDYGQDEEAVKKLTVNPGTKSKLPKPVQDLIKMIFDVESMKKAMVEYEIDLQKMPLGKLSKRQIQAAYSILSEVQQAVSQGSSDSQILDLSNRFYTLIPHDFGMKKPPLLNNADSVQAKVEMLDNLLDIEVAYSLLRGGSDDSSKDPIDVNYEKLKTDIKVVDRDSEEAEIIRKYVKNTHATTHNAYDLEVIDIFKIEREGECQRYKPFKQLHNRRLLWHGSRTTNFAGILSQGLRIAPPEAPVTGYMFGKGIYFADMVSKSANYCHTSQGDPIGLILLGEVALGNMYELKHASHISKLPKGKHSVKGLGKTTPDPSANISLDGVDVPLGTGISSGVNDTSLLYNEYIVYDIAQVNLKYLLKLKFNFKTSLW

For another assay, the target named is PARP2 (Mus musculus (Mouse), UniProt O88554). As to the kind of experiment: PARP2 autoparsylation assay (LC/MS detection of nicotinamide). It counts as biochemical. The following applies: 20 nM enzyme, 250 μM β-NAD+, 60 min. The protocol:
as §1

Assay [1] has as its system Wnt ligand-induced signaling in HEK293 cells. As to the kind of experiment: Wnt-responsive Super-TOpFlash (STF) luciferase reporter gene assay. It counts as cell-based. The following applies: Homo sapiens, Wnt3A condition medium. The method in brief: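 HEK293 cells (8000/well, 5% FBS medium) treated with 20% mouse L-cell Wnt3A conditioned medium plus compounds in 10-point serial dilution; luciferase read next day. Inhibition calculated relative to Wnt3A-induced signal without compound and background without Wnt3A CM or compound.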
(In general: A reporter such as luciferase makes a cellular process visible.)

In assay [2] the test system is Axin2 protein in SW480 cells. As to the kind of experiment: Cellular ELISA assay of Axin2 protein stabilization. In kind it is cell-based. The following applies: Homo sapiens, 24 hrs, read-out: Axin AC50. The method in brief:
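SW480 colorectal cells seeded overnight, treated with compound, then lysed. Axin2 in lysates measured by sandwich ELISA: anti-Axin2 capture antibody coated at 1 μg/ml (pH 9.2), lysate 2 h at room temperature, biotinylated anti-Axin2 detection 2 h, then streptavidin-HRP 30 min.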
For orientation: An ELISA detects its analyte on a solid surface through an enzyme-linked reagent.

The subject of assay [3] is Non-small lung cancer ABC-1 cells. As to the kind of experiment: Cellular proliferation assay (CellTiter-Glo). It counts as cell-based. The following applies: Homo sapiens, 72 h; ABC-1 cells, 3 days of compound treatment; read-out: ABC-1 IC50. A general note: In ATP-based viability assays light output follows the ATP content of the culture.
Experimental: Cellular Proliferation Assay to Determine Compound Inhibition of Cancer Cell Growth
Viable cells were measured after 3 days of compound treatment using the CellTiter-Glo assay (Promega, G7570). Assay was performed following the manufacture protocol.
Assay [4] has as its target human tankyrase 1 PARP catalytic domain, TNKS1P (Homo sapiens (Human), UniProt O95271). The assay is described as follows: TNKS1 autoparsylation assay (LC/MS detection of nicotinamide). As to conditions: read-out: TNKS1 AP IC50, 20 nM enzyme, 250 μM β-NAD+, 60 min.
The target in assay [5] is tankyrase 2 protein PARP domain, TNKS2P (Homo sapiens (Human), UniProt Q9H2K2). The assay is described as follows: TNKS2 autoparsylation assay (LC/MS detection of nicotinamide). As to conditions: read-out: TNKS2 AP IC50, 20 nM enzyme, 250 μM β-NAD+, 60 min.
Sequence of tankyrase 2 protein PARP domain, TNKS2P (Q9H2K2 959-1164): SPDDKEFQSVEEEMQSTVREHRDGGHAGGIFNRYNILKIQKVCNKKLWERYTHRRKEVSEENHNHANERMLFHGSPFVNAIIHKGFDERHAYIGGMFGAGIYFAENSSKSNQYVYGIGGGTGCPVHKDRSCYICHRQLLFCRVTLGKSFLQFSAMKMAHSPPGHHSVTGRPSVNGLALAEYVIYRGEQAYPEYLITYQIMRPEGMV

Structures are written as SMILES.

Sequence of PARP2 (O88554 whole entry): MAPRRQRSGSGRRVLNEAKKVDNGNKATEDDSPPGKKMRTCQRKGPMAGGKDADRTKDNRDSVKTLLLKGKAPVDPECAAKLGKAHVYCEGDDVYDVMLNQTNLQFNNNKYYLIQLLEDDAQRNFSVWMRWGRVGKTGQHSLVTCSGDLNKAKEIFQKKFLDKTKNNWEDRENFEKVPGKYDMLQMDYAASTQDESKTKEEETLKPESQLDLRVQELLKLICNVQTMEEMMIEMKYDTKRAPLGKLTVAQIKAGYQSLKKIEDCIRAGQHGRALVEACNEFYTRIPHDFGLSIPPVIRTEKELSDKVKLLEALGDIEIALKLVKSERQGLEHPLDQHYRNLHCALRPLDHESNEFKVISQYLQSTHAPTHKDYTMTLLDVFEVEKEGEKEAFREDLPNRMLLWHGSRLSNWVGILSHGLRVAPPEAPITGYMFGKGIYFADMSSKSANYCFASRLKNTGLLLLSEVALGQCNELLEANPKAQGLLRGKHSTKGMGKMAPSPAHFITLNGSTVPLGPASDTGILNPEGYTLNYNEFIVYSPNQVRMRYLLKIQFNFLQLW
Sequence of human tankyrase 1 PARP catalytic domain, TNKS1P (O95271 1112-1317): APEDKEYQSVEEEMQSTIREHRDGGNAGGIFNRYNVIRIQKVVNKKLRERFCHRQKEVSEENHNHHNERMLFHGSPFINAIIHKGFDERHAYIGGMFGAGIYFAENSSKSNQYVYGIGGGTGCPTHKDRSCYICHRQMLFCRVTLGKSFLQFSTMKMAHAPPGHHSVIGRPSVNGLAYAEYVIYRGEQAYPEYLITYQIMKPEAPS

The IC50 is the concentration that gives 50% inhibition. The AC50 is the midpoint of the concentration-response curve, whichever way the signal moves. `CC(C)Oc1ccc(C(=O)C2CCN(CC(=O)NCc3nc4c(c(=O)[nH]3)COCC4)CC2)cc1` [Example 3, 2-[4-(4-Isopropoxy-benzoyl)-piperidin-1-yl]-N-(4-oxo-3,5,7,8-tetrahydro-4H-pyrano[4,3-c]pyrimidin-2-ylmethyl)-acetamide]: the IC50 on Human PARP1 stood at 5630 ± 730 nM; against PARP2 it was 2100 ± 240 nM; in assay [1], 23 ± 2 nM; in assay [3], 105 nM; in assay [4], 35 ± 9 nM; in assay [5], 14 ± 1 nM. Further, the AC50 in assay [2] is 62 ± 16 nM.

On to `O=C(CN1CCC(C(=O)c2ccc(F)cc2)CC1)NCc1nc2c(c(=O)[nH]1)CCCC2` [Example 10, 2-(4-(4-Fluorobenzoyl)piperidin-1-yl)-N-((4-oxo-3,4,5,6,7,8-hexahydroquinazolin-2-yl)methyl)acetamide], for which the IC50 at Human PARP1 was 2700 ± 800 nM; at PARP2, 700 ± 80 nM; in assay [1], 27 ± 15 nM; in assay [3] it was 393 nM; in assay [4], 55 ± 3 nM; in assay [5], 36 ± 2 nM. Further, the AC50 in assay [2] was 479 ± 24 nM.

Regarding `COc1ccc(C(=O)C2CCN(CC(=O)NCc3nc4c(c(=O)[nH]3)CCC4)CC2)cc1` [Example 11, 2-(4-(4-Methoxybenzoyl)piperidin-1-yl)-N-((4-oxo-4,5,6,7-tetrahydro-3H-cyclopenta[d]pyrimidin-2-yl)methyl)acetamide], the IC50 against Human PARP1 came to 17900 ± 1800 nM; on PARP2, 4620 ± 20 nM; in assay [1], 3 ± 1 nM; in assay [3], 18 nM; in assay [4], 28.5 ± 3.5 nM; in assay [5], 110 ± 140 nM. In addition, the AC50 in assay [2] was found to be 15 ± 4 nM.

Turning to `COc1ccc(C(=O)C2CCN(CC(=O)NCc3nc(C)c(C)c(=O)[nH]3)CC2)cc1` [Example 12, N-((4,5-Dimethyl-6-oxo-1,6-dihydropyrimidin-2-yl)methyl)-2-(4-(4-methoxybenzoyl)piperidin-1-yl)acetamide], the IC50 against Human PARP1 is above 19000 nM; against PARP2 it was above 19000 nM; in assay [1], 7 ± 4 nM; in assay [3], 53 nM; in assay [4], 40 ± 2 nM; in assay [5], 20 ± 3 nM. Moreover, in assay [2], the AC50 amounted to 32 ± 4 nM.

`CC(C)(C)CN(Cc1nc2c(c(=O)[nH]1)COCC2)C(=O)CN1CCC(C(=O)c2ccc(F)cc2)CC1` [Example 14, 2-(4-(4-Fluorobenzoyl)piperidin-1-yl)-N-neopentyl-N-((4-oxo-4,5,7,8-tetrahydro-3H-pyrano[4,3-d]pyrimidin-2-yl)methyl)acetamide]: the IC50 is above 19000 nM at Human PARP1; above 19000 nM against PARP2; 49 ± 23 nM in assay [1]; 270 nM in assay [3]; 60 ± 7 nM in assay [4]; 20 ± 1 nM in assay [5]. Also, the AC50 in assay [2] worked out at 501 ± 29 nM.

With `O=C(c1ccc(F)cc1)C1CCN(CC(=O)N(Cc2ccc(F)cc2)Cc2nc3c(c(=O)[nH]2)COCC3)CC1` [Example 15, 2-(4-(4-Fluorobenzoyl)piperidin-1-yl)-N-(4-fluorobenzyl)-N-((4-oxo-4,5,7,8-tetrahydro-3H-pyrano[4,3-d]pyrimidin-2-yl)methyl)acetamide], the IC50 is above 19000 nM at Human PARP1; above 19000 nM against PARP2; 101 ± 74 nM in assay [1]; 540 nM in assay [3]; 138 ± 1 nM in assay [4]; 32 ± 1 nM in assay [5]. Moreover, the AC50 in assay [2] is 804 ± 91 nM.

As for `COc1ccc(CN(Cc2nc3c(c(=O)[nH]2)COCC3)C(=O)CN2CCC(C(=O)c3ccc(F)cc3)CC2)cc1` [Example 16, 2-(4-(4-Fluorobenzoyl)piperidin-1-yl)-N-(4-methoxybenzyl)-N-((4-oxo-4,5,7,8-tetrahydro-3H-pyrano[4,3-d]pyrimidin-2-yl)methyl)acetamide], the IC50 at Human PARP1 is above 19000 nM; against PARP2 it was above 19000 nM; in assay [1] it was 49 ± 43 nM; in assay [3], 340 nM; in assay [4], 66 ± 4 nM; in assay [5] it was 15 ± 2 nM. Further, the AC50 in assay [2] is 587 ± 87 nM.

For the molecule `O=C(c1ccc(F)cc1)C1CCN(CC(=O)N(Cc2nc3c(c(=O)[nH]2)COCC3)Cc2nc3ccccc3s2)CC1` [Example 17, N-(Benzo[d]thiazol-2-ylmethyl)-2-(4-(4-fluorobenzoyl)piperidin-1-yl)-N-((4-oxo-4,5,7,8-tetrahydro-3H-pyrano[4,3-d]pyrimidin-2-yl)methyl)acetamide], the IC50 at Human PARP1 is above 19000 nM; at PARP2, above 19000 nM; in assay [1] it was 49 ± 37 nM; in assay [3] it was 420 nM; in assay [4], 73 ± 3 nM; in assay [5], 18 ± 1 nM. Moreover, the AC50 in assay [2] is 125 ± 18 nM.

With `COc1cccc(CN(Cc2nc3c(c(=O)[nH]2)COCC3)C(=O)CN2CCC(C(=O)c3ccc(F)cc3)CC2)c1` [Example 18, 2-(4-(4-Fluorobenzoyl)piperidin-1-yl)-N-(3-methoxybenzyl)-N-((4-oxo-4,5,7,8-tetrahydro-3H-pyrano[4,3-d]pyrimidin-2-yl)methyl)acetamide], the IC50 at Human PARP1 is above 19000 nM; against PARP2, above 19000 nM; in assay [1], 72 ± 62 nM; in assay [3], 535 ± 7 nM; in assay [4] it was 94 ± 1 nM; in assay [5], 23 nM. For the same molecule, the AC50 in assay [2] worked out at 493 ± 87 nM.

`O=C(c1ccc(F)cc1)C1CCN(CC(=O)N(Cc2nc3c(c(=O)[nH]2)COCC3)C[C@H]2CCCO2)CC1` [Example 29, (R)-2-(4-(4-Fluorobenzoyl)piperidin-1-yl)-N-((4-oxo-4,5,7,8-tetrahydro-3H-pyrano[4,3-d]pyrimidin-2-yl)methyl)-N-((tetrahydrofuran-2-yl)methyl)acetamide]: the IC50 against Human PARP1 is above 19000 nM; on PARP2, above 19000 nM; in assay [1] it was 79 ± 80 nM; in assay [3], 1430 nM; in assay [4], 148 ± 10 nM; in assay [5] it was 38 ± 1 nM. Further, the AC50 in assay [2] is 990 ± 220 nM.

As for `CC[C@H](C)N(Cc1nc2c(c(=O)[nH]1)COCC2)C(=O)CN1CCC(C(=O)c2ccc(F)cc2)CC1` [Example 31, (S)—N-sec-Butyl-2-(4-(4-fluorobenzoyl)piperidin-1-yl)-N-((4-oxo-4,5,7,8-tetrahydro-3H-pyrano[4,3-d]pyrimidin-2-yl)methyl)acetamide], the IC50 was above 19000 nM against Human PARP1; above 19000 nM against PARP2; 37 ± 9 nM in assay [1]; 630 ± 400 nM in assay [3]; 38 ± 3 nM in assay [4]; 13 ± 1 nM in assay [5]. Besides, the AC50 in assay [2] is 1100 ± 180 nM.

On to `CC[C@@H](C)N(Cc1nc2c(c(=O)[nH]1)COCC2)C(=O)CN1CCC(C(=O)c2ccc(F)cc2)CC1` [Example 32, (R)—N-sec-Butyl-2-(4-(4-fluorobenzoyl)piperidin-1-yl)-N-((4-oxo-4,5,7,8-tetrahydro-3H-pyrano[4,3-d]pyrimidin-2-yl)methyl)acetamide], for which the IC50 at Human PARP1 was above 19000 nM; against PARP2, above 19000 nM; in assay [1] it was 49 ± 14 nM; in assay [3], 370 nM; in assay [4], 43 ± 2 nM; in assay [5], 13 ± 1 nM. In addition, in assay [2], the AC50 is 910 ± 150 nM.

In the case of `CC(C)N(Cc1nc2c(c(=O)[nH]1)COCC2)C(=O)CN1CCC(C(=O)c2ccc(F)cc2)CC1` [Example 33, 2-(4-(4-Fluorobenzoyl)piperidin-1-yl)-N-isopropyl-N-((4-oxo-4,5,7,8-tetrahydro-3H-pyrano[4,3-d]pyrimidin-2-yl)methyl)acetamide], the IC50 against Human PARP1 was above 19000 nM; at PARP2, above 19000 nM; in assay [1], 59 ± 20 nM; in assay [3] it was 690 ± 100 nM; in assay [4] it was 95 ± 1 nM; in assay [5], 20 ± 1 nM. Besides, the AC50 in assay [2] turned out to be 2800 ± 1400 nM.

With `C[C@H](c1ccc(F)cc1)N(Cc1nc2c(c(=O)[nH]1)COCC2)C(=O)CN1CCC(C(=O)c2ccc(F)cc2)CC1` [Example 36, (R)-2-(4-(4-Fluorobenzoyl)piperidin-1-yl)-N-(1-(4-fluorophenyl)ethyl)-N-((4-oxo-4,5,7,8-tetrahydro-3H-pyrano[4,3-d]pyrimidin-2-yl)methyl)acetamide], the IC50 was above 19000 nM on Human PARP1; above 19000 nM against PARP2; 127 ± 47 nM in assay [1]; 2630 nM in assay [3]; 104 ± 28 nM in assay [4]; 25 ± 7 nM in assay [5]. In addition, the AC50 in assay [2] was determined as 1850 ± 310 nM.

Regarding `CC(c1ccc(F)cc1F)N(Cc1nc2c(c(=O)[nH]1)COCC2)C(=O)CN1CCC(C(=O)c2ccc(F)cc2)CC1` (stereo not drawn) [Example 37, N-(1-(2,4-Difluorophenyl)ethyl)-2-(4-(4-fluorobenzoyl)piperidin-1-yl)-N-((4-oxo-4,5,7,8-tetrahydro-3H-pyrano[4,3-d]pyrimidin-2-yl)methyl)acetamide], the IC50 at Human PARP1 was above 19000 nM; against PARP2, above 19000 nM; in assay [1], 96 ± 19 nM; in assay [3], 510 nM; in assay [4] it was 155 ± 34 nM; in assay [5], 39.5 ± 7.8 nM. Also, in assay [2], the AC50 turned out to be 960 ± 520 nM.
